From US20140121237A1, “Methods for Inhibiting Virus Replication” (priority 2011, published 2014)
Where two headings read alike, the source gives them in different places.

Experiments:
[1] = system: A/WSN/33; assay: In vitro inhibition assay in BEAS2B cells, virus copies by qRT-PCR; format: cell-based, Influenza A virus
[2] = mouse, in vivo
[3] = system: A/WSN/33; details: previously shown (literature); cited from earlier work
[4] = system: BEAS2B cells
[5] = system: A/WSN/33; assay: Mouse infection, lung M gene copy number by qPCR; format: in vivo, BALB/c female mice; details: prophylactic, NSC 95397 […], KN-93 10 mg/kg by gavage, lungs 48 h after infection
[6] = system: CAMKIIB gene expression; format: in vivo, mice; details: 10 mg/kg; 24 h and 48 h post-treatment
[7] = system: A/WSN/33; format: cell-based, Influenza A virus
[8] = system: A/CA/04/09; assay: Mouse infection, lung infectious virus titer (TCID50 on MDCK cells); format: in vivo, BALB/c female mice; details: NSC 95397 […], KN-93 10 mg/kg; for lung infectious virus (TCID50) vs control: prophylactic
[9] = system: A/New Calcdonia/20/90; assay: Inhibition assay in A549 cells (qRT-PCR copy number, NP staining); format: cell-based, Influenza A virus; details: A549 cells treated prophylactically or therapeutically, varying concentrations
[10] = in vivo; cited from earlier work
[11] = system: A/New Calcdonia/20/90; assay: Influenza replication in lungs of mice (qRT-PCR, TCID50); format: in vivo, BALB/c mice; details: mice treated with 10 or 200 mg/kg
Protocol: (§1) Animals. BALB/c female mice (6-8 week-old) were obtained from NCI. All experiments and procedures were Institutional Animal Care and Use Committee (IACUC) approved by the IACUC of UGA. The animals were kept alone in cages. They were allowed free access to water and food both before and during the experiments. All experiments were performed with 5 mice per group and repeated independently at least twice.
(§2) Drug treatment and infection. Probenecid was dissolved in PBS and injected intraperitoneally at final doses of 10 and 200 mg/kg body weight (about 0.2 ml per animal). Similar studies were done using the same doses but delivering by gavage. […] The treatments were 24 h or 48 h before infection. Prior to infection, mice were anesthetized with Avertin and infected by intranasal instillation with 50 μl of PBS containing 100 PFU of A/WSN/33 or A/New Calcdonia/20/90 influenza virus. The lungs of the mice were collected at 48 hip for qRT-PCR and TCID50. In some studies, Probenecid was administered at 48 h prior to influenza virus infection by tail vein injection (200 ul) where the following groups were evaluated (5 mice/group): Group 1—Probenecid 5.0 mg/kg; Group 2—Probenecid 0.5 mg/kg; Group 3—Probenecid 0.05 mg/kg; Group 4—Positive Control—KN93 (10 mg/kg); Group 5—Negative Control (PBS); Group 6—Probenecid 5.0 mg/kg no infection (gene silencing only).
(§3) Detection of virus replication. qRT-PCR and TCID50 of the lungs. The lungs of infected animals were longitudinally sectioned. One half of the lung was into TRizol (Invitrogen, Carlsbad, Calif., USA) for isolating total RNA. Another half lung was into MEM/without serum media for TCIT50. The qRT-PCR performance for both of virus replication and the gene expression was like in vitro.

[12] = system: A/WSN/33; assay: as above; format: in vivo, BALB/c mice
Protocol: as §1, §2, §3

[13] = system: A/WSN/33; assay: Inhibition assay in A549 cells (qRT-PCR copy number, NP staining); format: cell-based, Influenza A virus; details: A549 cells treated prophylactically or therapeutically, varying concentrations
[14] = system: A549 cells
[15] = system: SLC22A8 gene; design: species or system BALB/c mice; details: mouse, in vivo
[16] = system: SLC22A8 gene; format: cell-based, human; details: A549 cells; varying concentrations; 24 and 48 h

## COc1ccc(S(=O)(=O)N(CCO)c2ccccc2CN(C)C/C=C/c2ccc(Cl)cc2)cc1 [KN-93]
[1]; Influenza A virus, WSN, BEAS-2B, read-out: inhibition of virus replication
  inhibition at 250 µM: > 80%
[1]; pretreatment 1 h, […]
  dose dependence of inhibition of virus replication: inhibited influenza replication in a dose-dependent manner
[2]
  toxicity in mice treated with drugs only: no apparent toxicity
[3]
  influenza viral replication in MDCK cells: inhibits A/WSN/33 influenza viral replication in a dose-dependent manner
[4]
  cell cytotoxicity: insignificant
[4]; 250 uM
  cell cytotoxicity: negligible
[4]; 500 uM (highest drug concentration)
  cell cytotoxicity compared to the control: 20-30%
[5]; 24 h before infection
  lung influenza M gene copy number vs control: significantly (p<0.05) shielded
[5]; 48 h before infection
  lung influenza M gene copy number vs control: not statistically significant
[6]
  CAMKIIB gene expression in lungs: down-modulation
[7]
  number of NP-staining cells compared to control: not perceptibly affected
[8]; 24 h before infection
  lung infectious virus (TCID50) vs control: significantly (p<0.05) different than control
[8]; 48 h before infection
  lung infectious virus (TCID50) vs control: not statistically significant
[8]; treatment at 24 h or 48 hpi
  reduction of lung virus titers vs control: no significant (p<0.05) effect

## CCCN(CCC)S(=O)(=O)c1ccc(C(=O)O)cc1 [Probenecid, 4-(dipropylsulfamoyl)benzoic acid]
[9]
  influenza virus replication: refractory to influenza virus replication
[10]
  increase of blood concentrations of Tamiflu (oseltamivir): more than double
[11]
  influenza virus replication in lungs: refractory to influenza virus replication
[12]; 10 mg/kg Probenecid, -24 or +24 h
  efficacy relative to Tamiflu: as effective as Tamiflu treatment
[12]; mice treated prophylactically or therapeutically, varying concentrations
  influenza virus replication in lungs: refractory to influenza virus replication
[13]
  influenza virus replication: refractory to influenza virus replication
[14]
  toxicity: without causing toxicity
[15]
  SLC22A8 gene expression: effectively reduce SLC22A8 gene expression
[16]
  SLC22A8 gene expression: effectively reduce SLC22A8 gene expression
